Reference: paper PMC10566733 (PLOS ONE, 2023)
Where “and” joins values, the source holds several entries; their conditions need not be identical. Equal entries are not always repeated.

How the values were obtained:
[1] = endothelial monolayers absent; FITC-TAT 10 μM; Fig 1A
Description: (§1) Briefly, the cells were seeded onto 24-well culture inserts (Falcon Permeable Support for 24-well plate; cat. #353104), and one-half of the medium was replaced every other day, and the cells were cultured for 5 days prior to the performance of a permeability assay. On the day of the assay, the culture medium was replaced with serum-free DMEM with FITC-linked peptides or bovine serum albumin (Sigma).

[2] = system: monolayer of bEnd.3 mouse brain endothelial cells; experiment: Permeability across a monolayer of brain endothelial cells (in vitro BBB model); assay type: in vitro ADME; design: Diffusion of FITC-TAT across bEnd.3 monolayer / Diffusion of FITC-linked peptide across bEnd.3 monolayer / Diffusion of FITC-TAT across bEnd.3 monolayer, FITC-TAT + TAT / Diffusion of FITC-TAT across bEnd.3 monolayer, FITC-TAT + TATK/R>A: unit not given here; conditions: for Diffusion of FITC-TAT across bEnd.3 monolayer, FITC-TAT + TAT: FITC-TAT 10 μM coupled with non-FITC TAT 10 μM; for Diffusion of FITC-TAT across bEnd.3 monolayer, FITC-TAT + TAT / Diffusion of FITC-TAT across bEnd.3 monolayer, FITC-TAT + TATK/R>A / Diffusion of FITC-TAT across bEnd.3 monolayer / Diffusion of FITC-linked peptide across bEnd.3 monolayer: fluorescence spectrophotometry; for Diffusion of FITC-TAT across bEnd.3 monolayer, FITC-TAT + TATK/R>A: FITC-TAT 10 μM coupled with non-FITC TAT^K/R>A 10 μM; for Diffusion of FITC-TAT across bEnd.3 monolayer: bEnd.3 monolayer on Transwell, serum-free DMEM
[3] = system: monolayer of bEnd.3 brain endothelial cells; conditions: 1000 μM TAT; Fig 5A
Description: as §1
Medium collected from cell culture in vitro (12 μl medium per culture) and tissue samples harvested from mice in vivo were denatured by boiling in lysis buffer, separated by electrophoresis, transferred onto PVDF membranes, and imaged after incubation in primary and secondary antibodies as described previously for in vitro [55] and in vivo [57] experiments. The following primary antibodies were used: anti-albumin (1:2000; GeneTex, cat. #102419, for the in vitro experiments; 1:5000; Abcam, cat. #ab106582, for the in vivo experiments) and anti-ɑ-tubulin (1:5000; GeneTex, cat. #GTX628802) antibodies, and the following secondary antibodies were used: anti-rabbit (1:5000; GeneTex, cat. #GTX213110-01), anti-mouse (1:1000; GeneTex, cat. #GTX213111-01), and anti-chicken (1:1000; Abcam, cat. #ab97135) antibodies.

[4] = diffusion time 0.1 h, individual cultures n = 3
[5] = diffusion time 12 h, individual cultures n = 3
[6] = diffusion time 24 h, individual cultures n = 3

SMILES: N=C(N)NCCC[C@H](NC(=O)[C@H](CCCNC(=N)N)NC(=O)[C@H](CCCNC(=N)N)NC(=O)[C@H](CCC(N)=O)NC(=O)[C@H](CCCNC(=N)N)NC(=O)[C@H](CCCNC(=N)N)NC(=O)[C@H](CCCCN)NC(=O)[C@H](CCCCN)NC(=O)[C@H](CCCNC(=N)N)NC(=O)CNC(=O)[C@H](Cc1ccc(O)cc1)NC(=S)Nc1ccc2c(c1)C(=O)OC21c2ccc(O)cc2Oc2cc(O)ccc21)C(=O)O [FITC-TAT]
- Effect of lowering the temperature to 4°C on diffusion of FITC-TAT across Transwell inserts [1]: had no effect
- Diffusion of FITC-TAT from upper to lower chamber of Transwell inserts ([2]; 37°C, regardless of whether monolayers of brain endothelial cells were cultured on the membranes, Fig 1A and 1B): readily diffused across to the lower chamber
- Diffusion of FITC-TAT across bEnd.3 monolayer, FITC-TAT + TAT [2, 4]: 1.844 and 1.839 and 1.804
- Diffusion of FITC-TAT across bEnd.3 monolayer, FITC-TAT + TAT [2, 5]: 42.0052 and 42.275 and 41.3436
- Diffusion of FITC-TAT across bEnd.3 monolayer, FITC-TAT + TAT [2, 6]: 90.1666 and 89.6029 and 94.8903
- Diffusion of FITC-TAT across bEnd.3 monolayer, FITC-TAT + TATK/R>A [2, 4]: 1.736 and 1.755 and 1.705
- Diffusion of FITC-TAT across bEnd.3 monolayer, FITC-TAT + TATK/R>A [2, 5]: 41.331 and 40.0366 and 39.1388
- Diffusion of FITC-TAT across bEnd.3 monolayer, FITC-TAT + TATK/R>A [2, 6]: 85.9302 and 85.5824 and 85.3453
- Effect of the presence of non-FITC TAT or non-FITC TAT^K/R>A on permeability of the monolayer to FITC-TAT ([2]; FITC-TAT 10 μM with 10 μM competitor, Fig 3D): only marginally decreased
- Effect of NaN3 and 2-DG treatment regimens on ability of FITC-TAT to cross the monolayer ([2]; FITC-TAT 10 μM, NaN3 10 mM and 2-DG 6 mM, 1 h pre-treatment or 24 h, Fig 2B): neither treatment regimens had an effect
- Diffusion of FITC-TAT across bEnd.3 monolayer ([2]; FITC-TAT 10 μM, 4°C, diffusion time 0 h, individual cultures n = 10): 1.386 and 10.0745 and 1.495 and 1.465 and 7.9907 and 7.9 and 8.057 and 7.849 and 10.0907 and 10.1377
- Diffusion of FITC-TAT across bEnd.3 monolayer ([2]; FITC-TAT 10 μM, 4°C, diffusion time 0.5 h, individual cultures n = 10): 2.727 and 10.2694 and 1.946 and 2.6148 and 12.2754 and 11.4859 and 13.8266 and 14.9326 and 10.2588 and 10.1802
- Diffusion of FITC-TAT across bEnd.3 monolayer ([2]; FITC-TAT 10 μM, 4°C, diffusion time 1 h, individual cultures n = 10): 3.318 and 12.0592 and 3.998 and 4.153 and 14.099 and 14.1024 and 12.2279 and 14.4626 and 12.8546 and 12.5004
- Diffusion of FITC-TAT across bEnd.3 monolayer ([2]; FITC-TAT 10 μM, 4°C, diffusion time 2 h, individual cultures n = 10): 4.184 and 12.4226 and 4.5396 and 5.958 and 21.4454 and 17.4004 and 16.7345 and 14.5981 and 18.4195 and 13.6876
- Diffusion of FITC-TAT across bEnd.3 monolayer ([2]; FITC-TAT 10 μM, 4°C, diffusion time 4 h, individual cultures n = 10): 12.2948 and 22.4089 and 5.603 and 11.4776 and 26.9335 and 21.9034 and 18.3373 and 22.0326 and 23.9812 and 20.9146
- Diffusion of FITC-TAT across bEnd.3 monolayer ([2]; FITC-TAT 10 μM, 4°C, diffusion time 8 h, individual cultures n = 10): 23.6561 and 36.4429 and 7.1971 and 15.1917 and 28.8919 and 24.9217 and 33.0378 and 37.6449 and 33.9313 and 51.5353
- Diffusion of FITC-TAT across bEnd.3 monolayer ([2]; FITC-TAT 10 μM, 4°C, diffusion time 12 h, individual cultures n = 10): 44.603 and 38.3865 and 18.3523 and 26.8326 and 40.1964 and 39.8496 and 31.2218 and 52.2936 and 30.2304 and 54.311
- Diffusion of FITC-TAT across bEnd.3 monolayer ([2]; FITC-TAT 10 μM, 37°C, diffusion time 0 h, individual cultures n = 8): 2.7408 and 2.991 and 8.292 and 8.146 and 7.613 and 9.624 and 9.686 and 9.768
- Diffusion of FITC-TAT across bEnd.3 monolayer ([2]; FITC-TAT 10 μM, 37°C, diffusion time 0.5 h, individual cultures n = 8): 5.546 and 5.194 and 16.5195 and 13.9086 and 14.4213 and 13.3482 and 14.7024 and 14.0517
- Diffusion of FITC-TAT across bEnd.3 monolayer ([2]; FITC-TAT 10 μM, 37°C, diffusion time 1 h, individual cultures n = 8): 8.062 and 7.828 and 16.9226 and 16.4917 and 15.6732 and 12.2867 and 19.4469 and 13.4865
- Diffusion of FITC-TAT across bEnd.3 monolayer ([2]; FITC-TAT 10 μM, 37°C, diffusion time 2 h, individual cultures n = 8): 13.5165 and 10.5024 and 28.7248 and 24.7001 and 24.2495 and 24.3505
- FITC-TAT movement across the endothelial monolayer with cytochalasin D ([2]; cells incubated with 100 μM cytochalasin D, FITC-TAT 10 μM, Fig 4D): increased rather than inhibited
- Effect of lowering the temperature to 4°C on diffusion of FITC-TAT across Transwell inserts ([2]; endothelial monolayers present, FITC-TAT 10 μM, Fig 1B): substantially decreased
- Diffusion of FITC-linked peptide across bEnd.3 monolayer ([2]; peptide 1 μM (Fig 3A), diffusion time 0.1 h, individual cultures n = 4): 16.1034 and 15.6278 and 16.2621 and 16.9227
- Diffusion of FITC-linked peptide across bEnd.3 monolayer ([2]; peptide 1 μM (Fig 3A), diffusion time 4 h, individual cultures n = 4): 33.068 and 35.9601 and 44.67 and 33.2662
- Diffusion of FITC-linked peptide across bEnd.3 monolayer ([2]; peptide 1 μM (Fig 3A), diffusion time 12 h, individual cultures n = 4): 59.5062 and 62.0797 and 69.9514 and 60.3513
- Diffusion of FITC-linked peptide across bEnd.3 monolayer ([2]; peptide 1 μM (Fig 3A), diffusion time 24 h, individual cultures n = 4): 98.4329 and 97.1083 and 108.448 and 96.0109
- Diffusion of FITC-linked peptide across bEnd.3 monolayer ([2]; peptide 3 μM (Fig 3B), diffusion time 0.1 h, individual cultures n = 4): 5.536 and 5.776 and 5.613 and 5.958
- Diffusion of FITC-linked peptide across bEnd.3 monolayer ([2]; peptide 3 μM (Fig 3B), diffusion time 4 h, individual cultures n = 4): 30.6967 and 26.8471 and 24.0637 and 21.038
- Diffusion of FITC-linked peptide across bEnd.3 monolayer ([2]; peptide 3 μM (Fig 3B), diffusion time 12 h, individual cultures n = 4): 69.4896 and 55.4891 and 51.5686 and 64.8124
- Diffusion of FITC-linked peptide across bEnd.3 monolayer ([2]; peptide 3 μM (Fig 3B), diffusion time 24 h, individual cultures n = 4): 112.045 and 93.6163 and 91.1166 and 103.222
- Diffusion of FITC-linked peptide across bEnd.3 monolayer ([2]; peptide 10 μM (Fig 3C), diffusion time 0.1 h, individual cultures n = 4): 1.488 and 1.536 and 1.502 and 1.69
- Diffusion of FITC-linked peptide across bEnd.3 monolayer ([2]; peptide 10 μM (Fig 3C), diffusion time 4 h, individual cultures n = 4): 20.2675 and 19.471 and 18.2115 and 22.8397
- Diffusion of FITC-linked peptide across bEnd.3 monolayer ([2]; peptide 10 μM (Fig 3C), diffusion time 12 h, individual cultures n = 4): 55.3743 and 53.9149 and 46.6389 and 56.9448
- Diffusion of FITC-linked peptide across bEnd.3 monolayer ([2]; peptide 10 μM (Fig 3C), diffusion time 24 h, individual cultures n = 4): 95.2978 and 101.031 and 98.8203 and 104.851
- Diffusion of FITC-linked peptide across bEnd.3 monolayer ([2]; peptide 10 μM alone (Fig 3D), diffusion time 0.1 h, individual cultures n = 3): 1.749 and 1.772 and 1.79
- Diffusion of FITC-linked peptide across bEnd.3 monolayer ([2]; peptide 10 μM alone (Fig 3D), diffusion time 12 h, individual cultures n = 3): 43.9695 and 46.4386 and 47.7244
- Diffusion of FITC-linked peptide across bEnd.3 monolayer ([2]; peptide 10 μM alone (Fig 3D), diffusion time 24 h, individual cultures n = 3): 96.1412 and 98.5343 and 105.324

SMILES: N=C(N)NCCC[C@H](NC(=O)[C@H](CCCNC(=N)N)NC(=O)[C@H](CCCNC(=N)N)NC(=O)[C@H](CCC(N)=O)NC(=O)[C@H](CCCNC(=N)N)NC(=O)[C@H](CCCNC(=N)N)NC(=O)[C@H](CCCCN)NC(=O)[C@H](CCCCN)NC(=O)[C@H](CCCNC(=N)N)NC(=O)CNC(=O)[C@@H](N)Cc1ccc(O)cc1)C(=O)O [TAT]
- Effect of TAT on the amount of albumin that crossed the monolayer [3]: significantly increased
